Assay results published in patent publication EP4653435A1, “PRMT5-MTA INHIBITOR” (Suzhou Puhe Biopharma Co., Ltd., priority 2023, dated 2024).

Key:
[1] = Liver microsomal stability assay, mouse; format: in vitro ADME; conditions: mouse liver microsomes 0.5 mg/mL, compound 1 µM, NADPH 1 mM, 60 minute
Protocol: (§7) The compounds to be tested were co-incubated with liver microsomes of different species with or without the addition of NADPH. The final concentration of the test compounds in the test system was 1 µM, the final concentration of NADPH was 1 mM, and the final concentration of liver microsomes was 0.5 mg/mL.

HCT116-MTAPwt = assay: 2D antiproliferative assay (CTG cell viability), wild-type cells; format: cell-based; conditions: Homo sapiens, HCT-116, 7-10 days
Protocol: (§1) HCT116 wild-type and MTAP-deficient cells were cultured in McCoy's 5A medium containing 10% FBS and 1% penicillin-streptomycin, and cultured in a 37°C, 5% CO2 constant temperature incubator. 40 µL of cell suspension was introduced into each well of a 384-well microplate. 40 nL of different concentrations of test compounds were added to each well using an Echo, before culturing in a 37°C, 5% CO2 constant temperature incubator for 7-10 days. 40 µL of CTG solution (Promega, Cat No. G7573) was added to each well and incubated in a 37°C, 5% CO2 constant temperature incubator for 30 minutes in the dark.

HCT116-MTAPdel = assay: 2D antiproliferative assay (CTG cell viability), MTAP-deficient cells; format: cell-based; conditions: for IC50: Homo sapiens, HCT-116, HCT116 MTAP-deficient cells, 7-10 days, CTG, read-out: HCT116-MTAPdel/IC50/nM; for HCT116WT IMTAPdel selectivity: ratio IC50 wild type / MTAPdel, antiproliferation
Protocol: as §1

SDMA/HCT116-MTAPdel = assay: In-cell arginine symmetric dimethylation inhibition (In-cell western, ICW), MTAP-deficient cells; format: cell-based; conditions: for IC50: Homo sapiens, HCT-116, HCT116 MTAP-deficient cells, 96 hours; for Selectivity wt/MTAPdel: ratio SDMA IC50 wt / MTAPdel
Protocol: (§2) 60 nL of different concentrations of compounds were added to each well using an Echo, and incubated at 37°C, 5% CO2 for 96 hours.
(§3) Next, 50 µL of 4% paraformaldehyde solution was added to each well and incubated at room temperature for 20 minutes to fix the cells. The solution in the wells was removed, and each well was rinsed four times with PBS solution containing 0.1% Tween 20 (PBST). To each well was then added 30 µL of ice-cold methanol. After standing at -20°C for 10 minutes, the methanol was removed and the wells washed four times with PBST. 30 µL of Odyssey blocking solution containing 0.5% Tween 20 was added to each well and shaken for 2 hours at room temperature. The blocking solution was removed and 30 µL of primary antibody (Symmetric Di-Methyl Arginine Motif [sdma-RG] MultiMab™ Rabbit mAb mix) diluted at 1:500 in Odyssey blocking solution containing 0.5% Tween 20 was added to each well. The plates were incubated overnight at 4°C, before removing the primary antibody and rinsing each well four times with PBST, 5 minutes per rinse. Secondary antibody (goat anti-rabbit IRDye 800CW, 1:800) and nuclear stain (DRAQ5, 1:10000) diluted in Odyssey blocking solution containing 0.5% Tween 20 were then added to each well before incubating at room temperature for 2 hours in the dark. The secondary antibody was removed, and the wells rinsed four times with PBST.
(§4) The sdme-RG and DRAQ5 signals were scanned at 800 nm and 700 nm respectively on a Li-Cor Odyssey instrument and the signal values recorded. The sdme-RG/DRAQ5 ratio was used to calculate the percentage inhibition of arginine symmetric dimethylation (SDMA), and the IC50 value calculated using GraphPad Prism software.

SDMA/HCT116-MTAPwt = assay: In-cell arginine symmetric dimethylation inhibition (In-cell western, ICW), wild-type cells; format: cell-based; conditions: Homo sapiens, HCT-116, 96 hours
Protocol: as §2, §3, §4

[2] = Mouse pharmacokinetics testing; format: in vivo, CD1 female mice; conditions: female, CD1, mouse, in vivo
Protocol: CD1 female mice were used as test animals and administered the compounds orally/intravenously (oral dosage was 10 mg/kg and intravenous dosage was 2 mg/kg). Test protocol: Each oral and intravenous group consisted of three mice. […] Plasma drug concentrations after oral and intravenous administration were determined by LC/MS/MS, and the collected data analyzed using AB Sciex QTRAP 6500 software.

in vitro = conditions: dog, MDCK-MDR1, pH 7.4
Protocol: (§5) The membrane permeability of the molecules of the present invention was evaluated to predict their permeability to the brain.
(§6) The specific procedure was: 1. MDCK-MDR1 cells were pre-cultured at a density of 1.56*10^6 cells/mL in a 96-well plate at 37°C for 7 days. 2. The MDCKII-MDR1 plate was taken out of the incubator, rinsed twice with pre-warmed HBSS (10 mM HEPES, pH 7.4), and then incubated at 37°C for 30 minutes. 3. The stock solution of the compound to be tested was diluted with DMSO to obtain a 0.2 mM solution, and then diluted with HBSS (10 mM HEPES, pH 7.4) to obtain a 1 µM working solution. A blank control group was also diluted with DMSO to obtain a 0.2 mM solution, and then diluted with HBSS (10 mM HEPES, pH 7.4) to obtain a 1 µM working solution. The final concentration of DMSO in the culture system was 0.5%. 4. The transport rate of the drug in the apical to basolateral direction was determined: 125 µL of the 1 µM test compound solution was added to a Transwell insert (top compartment), before immediately transferring a 50 µL sample (D0 sample) from the top comparment to a new 96-well plate. The receiving plate wells (basolateral compartment) were filled with 235 µL HBSS (10 mM HEPES, pH 7.4) and incubated at 37°C for 2 hours. 5. Upon completion of the incubation, 50 µL samples were transferred from the donor and acceptor sides to the wells of a new 96-well plate, before adding 4 volumes of cold acetonitrile containing an appropriate internal standard (IS). Prior to LC-MS/MS analysis, 100 µL of the supernatant was taken and mixed with an appropriate volume of ultrapure water. Papp = (VA×[drug]acceptor)/(Area×Time×[drug]initial,donor) [formula] where VA is the volume of the receptor pores (unit:mL), Area is the surface area of the membrane (0.143 cm^2 for a Transwell-96 well permeable support), and time is the total transport time in seconds. Efflux Ratio = Papp(B−A) /Papp(A−B) [formula]

MDR1 (P-gp) = assay: in vitro; conditions: dog, MDCK-MDR1, pH 7.4
Protocol: as §5, §6

[3] = Liver microsomal stability assay, human; conditions: liver microsomes
Protocol: as §7

[4] = system: HUP-T4 (MTAPdel) human pancreatic cancer tumor cells; assay: In vivo efficacy, HUP-T4 subcutaneous xenograft; set-up: species or system BALB/c nude mice; conditions: BID, oral; for TGI: 28 consecutive days; for Tumor volume (mm^3)-D1: D1 (baseline at start of dosing)
Protocol: HUP-T4 (MTAPdel) human pancreatic cancer tumor cells (MEM medium with 10% fetal bovine serum) were cultured and inoculated into 6-8 week old female BALB/c nude mice (weighing about 25 g), with all mice subcutaneously inoculated. The mice were cultured in an SPF-grade environment, and all mice had free access to commercially certified standard diets. Test compounds were orally administered daily once the average tumor volume of the mice grew to about 176 mm^3. The control group received blank solvent (0.1% TW80+0.5% methylcellulose+99.4% saline), while the test group received a drug dose of 75 mg/kg or 50 mg/kg, twice a day. Tumor volume was measured in two dimensions with calipers three times a week, and the animals were weighed every day. […] Voume calculation formula: V=1/2a*b^2, where a denotes the long diameter of the tumor, and b the short diameter of the tumor.

hERG channels = hERG channels (Homo sapiens, UniProt Q12809); assay: cell-based
hERG channels, sequence (Q12809 whole entry): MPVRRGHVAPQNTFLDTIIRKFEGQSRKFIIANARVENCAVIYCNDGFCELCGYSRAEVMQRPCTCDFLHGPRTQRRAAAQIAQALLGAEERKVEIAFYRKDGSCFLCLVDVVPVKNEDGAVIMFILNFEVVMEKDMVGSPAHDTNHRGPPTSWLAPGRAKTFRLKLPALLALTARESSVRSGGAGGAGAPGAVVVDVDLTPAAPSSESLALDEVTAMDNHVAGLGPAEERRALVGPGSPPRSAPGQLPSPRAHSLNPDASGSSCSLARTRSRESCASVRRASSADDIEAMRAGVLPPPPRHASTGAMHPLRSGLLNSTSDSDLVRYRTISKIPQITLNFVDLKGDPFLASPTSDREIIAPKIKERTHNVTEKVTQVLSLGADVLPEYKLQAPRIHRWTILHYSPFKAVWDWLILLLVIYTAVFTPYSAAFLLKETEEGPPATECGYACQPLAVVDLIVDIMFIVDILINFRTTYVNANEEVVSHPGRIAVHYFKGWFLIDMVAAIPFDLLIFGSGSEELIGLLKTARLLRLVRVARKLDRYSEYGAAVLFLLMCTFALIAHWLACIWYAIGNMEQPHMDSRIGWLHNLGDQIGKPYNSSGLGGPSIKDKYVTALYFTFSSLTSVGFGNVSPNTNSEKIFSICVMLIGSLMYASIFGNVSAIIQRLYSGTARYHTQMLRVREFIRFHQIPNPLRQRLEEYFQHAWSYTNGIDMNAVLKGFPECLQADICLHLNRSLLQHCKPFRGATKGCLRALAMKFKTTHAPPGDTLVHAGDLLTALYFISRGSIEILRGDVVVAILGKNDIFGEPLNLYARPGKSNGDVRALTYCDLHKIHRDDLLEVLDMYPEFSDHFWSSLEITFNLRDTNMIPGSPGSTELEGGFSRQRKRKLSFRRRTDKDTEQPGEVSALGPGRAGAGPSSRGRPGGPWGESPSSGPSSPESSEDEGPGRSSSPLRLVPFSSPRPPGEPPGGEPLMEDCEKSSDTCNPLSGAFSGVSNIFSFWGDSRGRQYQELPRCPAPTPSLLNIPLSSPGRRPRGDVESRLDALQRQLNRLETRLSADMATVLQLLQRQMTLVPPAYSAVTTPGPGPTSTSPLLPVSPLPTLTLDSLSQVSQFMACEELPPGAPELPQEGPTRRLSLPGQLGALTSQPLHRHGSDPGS
Protocol: The CHO hERG-Duo cell line stably expressing hERG channels was purchased from B'SYS GmbH and screened for monoclonal clones using the patch clamp system of Pharmaron Beijing Co., Ltd. The cells were cultured in a medium containing F12 (HAM) medium, 10% fetal bovine serum, 100 U/mL penicillin-streptomycin, 100 µg/mL hygromycin, and 100 µg/mL G418.
The membrane was depolarized to +30 mV for 4.8 seconds before returning the voltage to -50 mV for 5.2 seconds to remove inactivation and measure the deactivation tail current. The sampling interval was 15 seconds, and the peak tail current size was used to quantify the hERG current amplitude.
A blank vehicle was applied to the cells to establish a baseline. Test samples were introduced after stabilizing the hERG current for at least 5 minutes. In the presence of the test compound, the hERG current at different working concentrations was recorded for no less than 5 minutes until reaching a steady state, before capturing 5 sweeps. If a steady state was not reached within 10 minutes, the mean peak current of the last 5 sweeps was taken instead of the steady-state value. […] Peak current inhibition = (1−(Peak tail currentcompound −Peak tail currentpositive control)/(Peak tail currentBlank vehicle −Peak tail currentpositive control)) × 100 [formula]

Compound	CLint scaled at 1 µM [1] [mL/min/kg]	IC50 (HCT116-MTAPwt) [nM]	IC50 (HCT116-MTAPdel) [nM]	HCT116WT IMTAPdel selectivity (HCT116-MTAPdel)	IC50 (SDMA/HCT116-MTAPdel) [nM]	Selectivity wt/MTAPdel (SDMA/HCT116-MTAPdel)	IC50 (SDMA/HCT116-MTAPwt) [nM]	F [2] [%]	AUC(0-t) ([2]; iv, 2 mg/kg) [ng·h/mL]	C0 ([2]; iv, 2 mg/kg) [ng/mL]	clearance ([2]; iv, 2 mg/kg) [mL/min/kg]	half-life ([2]; iv, 2 mg/kg) [h]	AUC(0-t) ([2]; po, 10 mg/kg) [ng·h/mL]	Cmax ([2]; po, 10 mg/kg) [ng/mL]	Tmax ([2]; po, 10 mg/kg) [h]	half-life ([2]; po, 10 mg/kg) [h]	Papp A→B (in vitro) [×10⁻⁶ cm/s]	Papp B→A (in vitro) [×10⁻⁶ cm/s]	efflux ratio (MDR1 (P-gp))	CLint scaled at 1 µM [3] [mL/min/kg]	also measured
[2H]C([2H])([2H])N(C(=O)C(=O)Nc1cnc(N)c2c1cnn2C)[C@@H]1COc2cc(C(F)(F)F)ccc21 [Compound P22]	46.2	961	6	160	0.2	1490	298	62	896	1140	35.5	2.6	2660	1180	0.25	2.2	14.9	20.6	1.38	7.8	TGI ([4]; 50 mg/kg): 102%; Tumor volume (mm^3)-D1 ([4]; 50 mg/kg): 176 mm^3; Tumor volume (mm^3)-D28 ([4]; 50 mg/kg): 158 mm^3; TGI ([4]; 75 mg/kg): 104%; Tumor volume (mm^3)-D1 ([4]; 75 mg/kg): 176 mm^3; Tumor volume (mm^3)-D28 ([4]; 75 mg/kg): 146 mm^3
CN(C(=O)C(=O)Nc1cnc(N)c2c1cnn2C)[C@@H]1COc2cc(SC(F)(F)F)ccc21 [Compound P29a]	–	2350	9	261	0.4	670	268	–	–	–	–	–	–	–	–	–	7.6	13.3	1.75	49.7	IC50 (hERG channels): 1500 nM
[2H]C([2H])([2H])N(C(=O)C(=O)Nc1cnc(N)c2c1cnn2C)[C@@H]1COc2cc(SC(F)(F)F)ccc21 [Compound P32]	242	1750	9	194	0.3	853	256	75	788	733	41.8	1.4	2580	798	0.25	1.7	10.5	13.5	1.28	32	IC50 (hERG channels): 2900 nM; TGI ([4]; 50 mg/kg): 97%; Tumor volume (mm^3)-D1 ([4]; 50 mg/kg): 176 mm^3; Tumor volume (mm^3)-D28 ([4]; 50 mg/kg): 198 mm^3; TGI ([4]; 75 mg/kg): 104%; Tumor volume (mm^3)-D1 ([4]; 75 mg/kg): 176 mm^3; Tumor volume (mm^3)-D28 ([4]; 75 mg/kg): 140 mm^3
